Data taken from patent US6294526A, “Use of flavone derivatives for induction of β-lactam-sensitivity of MRSA” (priority 1998, dated 2001).
Converted amounts (≈) assume the structure as drawn. Where two headings read alike, the source gives them in different places.

How the values were obtained:
MRSA [1] = test: antibacterial activity (MIC) by agar plate dilution method, MRSA strains; assay type: cell-based, methicillin-resistant Staphylococcus aureus; conditions: Staphylococcus aureus, 20 h; for MIC: range over strains
Protocol: (§1) The screening of the present invention may be carried out according to the agar plate dilution method designated by the Japan Society of Chemotherapy (Chemotherapy 29(1), 76-79 (1981)). Mueller-Hinton agar base semi-synthetic medium may be used for a plate culture medium for a sensitivity test together with an inoculating bacteria solution which may be prepared by culturing bacteria to be tested at 37° C. for 20 hours diluted with 8.5% by isotonic sodium chloride solution to 10^6 CFU/ml. Diluted β-lactam solutions are prepared by two times serial dilution. 1 ml of the diluted β-lactam solution and 1 ml of a predetermined concentration of a sample to be tested are added to 8 ml of the plate culture medium for a sensitivity test. To the resultant plate culture medium for sensitivity test, the bacteria are inoculated using a microplanter (SAKUMASEISAKUSYO Co.), cultured for 20 hours at 37° C. followed by assessing for a minimum inhibition concentration (MIC).
(§2) (A) Antibacterial activities of ether extract from Scutellaria barbata, SB-1 (isolated from Scutellaria barbata), apigenin (authentic sample) and luteolin (authentic sample) were shown in Table 1.
(§3) Flavones were dissolved in methanol and the others were dissolved in 0.1 N NaOH. A method for determination of antibacterial activity is, as described above, an agar plate dilution method designated by the Japan Society of Chemotherapy (Chemotherapy 29(1), 76-79 (1981)) to determine MIC value. MIC80 is a concentration at which a strain is prohibited to proliferate by 80% and MIC50 is a concentration at which a strain is prohibited to proliferate by 50%.

MSSA = test: antibacterial activity (MIC) by agar plate dilution method, MSSA strains; assay type: cell-based, Methicillin-sensitive Staphylooccus aureus; conditions: Staphylococcus aureus, 20 h; for MIC: range over strains
Protocol: as §1, §2, §3

MRSA [2] = test: antibacterial activity of antibiotics alone and in the presence of apigenin (4 μg/ml), MRSA; assay type: cell-based, methicillin-resistant Staphylococcus aureus; conditions: for MIC / MIC50: MRSA
Protocol: as §1
(D) Then use of 4 μg/ml of apigenin and other antibiotics at the same time was studied. The antibiotics are penicillin , ampicillin, cephalothin, cefoxitin, cefuroxime, cefotaxime, vancomycin, streptomycin, chloramphenicol, kanamycin, erythromycin, nalixic acid and tetracycline.

MRSA No. 5 = test: effect of flavone on antibacterial activity of antibiotics against MRSA No. 5 in bouillon (broth microdilution); assay type: cell-based, methicillin-resistant Staphylococcus aureus; conditions: for MIC: Staphylococcus aureus, MRSA, 20 h, read-out: MIC; for inhibitory effect on resistance of MRSA No.5 (in words): in the presence of flavone 0.5 mM
Protocol: Alternatively, the screening of the present invention may be carried out according to the broth microdilution method designated by the Japan Society of Chemotherapy (Chemotherapy 38(1), 102-105 (1990)). Muellar-Hinton broth is used as a culture medium for the sensitivity test, and 50 mg/ml of calcium(Ca) ion, 25 mg/ml of magnesium(Mg) ion, and 2% sodium chloride (NaCl) are added thereto. An inoculating bacteria solution may be prepared by culturing bacteria to be tested in Mueller-Hinton broth at 37° C. for 20 hours and diluting with Mueller-Hinton broth to 10^5 CFU/ml final concentration of inoculating bacteria. Diluted β-lactam solution is prepared by two times serial dilution series. 10 μl of the diluted β-lactam solution and 10 μl of a predetermined concentration of a sample of bacteria to be tested are added to mix with 80 μl of the culture medium for the sensitivity test. To the resultant plate culture medium for sensitivity test, the inoculating bacteria are added and culturing is carried out for 20 hours at 37° C. and then assessment for a minimum inhibition concentration (MIC) is carried out. A minimum inhibition concentration means the minimum concentration of β-lactam at which growth of bacteria is not recognized by the naked eye.
(G) Antibacterial activity of 6 β-lactams, that is, cephalothin, cefuroxime, cefotaxime, cefoxitin, streptomycin and vancomycin, against MRSA in the presence of 0.5 mM flavone was studied in bouillon.
Muellar-Hinton broth was used as a culture medium for the sensitivity test, and 50 mg/ml of calcium (Ca) ion, 25 mg/ml of maqnesium (Mg) ion, 2% sodium chloride (NaCl) were added thereto. An inoculating bacteria solution was prepared by culturing bacteria to be tested with Mueller-Hinton broth at 37° C. for 20 hours and diluting with Mueller-Hinton broth to 10^5 CFU/ml final concentration of inoculating bacteria. Diluted β-lactam solutions were prepared in two times serial dilutions starting from 10 mM. Ten microliters of the diluted β-lactam solution and 10 μl of 5 mM of flavone were mixed with 80 μl of the culture medium for the sensitivity test in a microplate having U-shaped wells and samples of bacteria to be tested were added thereto. The mixture was cultured 20 hours at 37° C. and then assessed for minimum inhibition concentration (MIC). Minimum inhibition concentration means minimum concentration of a β-lactum at which growth of bacteria is inhibited to the extent that bacteria is not recognized by the naked eye.

[3] = MRSA (20 strains), read-out: MIC50
[4] = MRSA, MRSA (20 strains), read-out: MIC
[5] = MSSA (7 strains), read-out: MIC50
[6] = MSSA, MSSA (7 strains), read-out: MIC
[7] = Staphylococcus aureus, 20 h, Antibiotics alone, read-out: MIC50
[8] = Staphylococcus aureus, 20 h, antibiotic with Apigenin (4 μg/ml), read-out: MIC
[9] = Staphylococcus aureus, 20 h, antibiotic with Apigenin (4 μg/ml), read-out: MIC50
[10] = Concentration of flavone 0.5 mM
[11] = Staphylococcus aureus, 20 h, Antibiotics alone
[12] = Staphylococcus aureus, 20 h, antibiotic with Apigenin (4 μg/ml)

| SMILES | MIC50 (MRSA [1]; [3]) [µg/mL] | MIC (MRSA [1]; [4]) [µg/mL] | MIC50 (MSSA; [5]) [µg/mL] | MIC (MSSA; [6]) [µg/mL] | further results |
| --- | --- | --- | --- | --- | --- |
| Oc1cc(O)c2c(c1)O[C@H](c1ccc(O)c(O)c1)[C@@H](O)C2 [(+)-Catechin, (+)-catechin] | > 250 | > 250 | > 250 | > 250 | – |
| COc1ccc(-c2cc(=O)c3c(O)cc(O)cc3o2)cc1 [Acacetin, acacetin] | > 250 | > 250 | > 250 | > 250 | – |
| CC1(C)S[C@@H]2[C@H](NC(=O)[C@H](N)c3ccccc3)C(=O)N2[C@H]1C(=O)O [Ampicillin, ampicillin] | – | – | – | – | MIC (MRSA [2]; Staphylococcus aureus, 20 h, Antibiotics alone, read-out: MIC): 2 to 125 µg/mL; MIC50 (MRSA [2]; [7]): 31.3 µg/mL; MIC (MRSA [2]; [8]): 2 to 62.5 µg/mL; MIC50 (MRSA [2]; [9]): 31.3 µg/mL |
| O=c1cc(-c2ccccc2)oc2cc(O)c(O)c(O)c12 [Baicalein, baicalein] | > 250 | > 250 | > 250 | > 250 | – |
| CO/N=C(\C(=O)N[C@@H]1C(=O)N2C(C(=O)O)=C(COC(C)=O)CS[C@H]12)c1csc(N)n1 [Cefotaxime, cefotaxime] | – | – | – | – | MIC50 (MRSA [2]; [7]): > 250 µg/mL; MIC50 (MRSA [2]; [9]): > 250 µg/mL; MIC (MRSA No. 5; Concentration of flavone 0 mM): 1000 µM (≈ 455 µg/mL); MIC (MRSA No. 5; [10]): 7.8 µM (≈ 3.55 µg/mL); inhibitory effect on resistance of MRSA No.5 (in words) (MRSA No. 5): showed inhibitory effect on resistance of MRSA No.5 |
| CO[C@@]1(NC(=O)Cc2cccs2)C(=O)N2C(C(=O)O)=C(COC(N)=O)CS[C@@H]21 [Cefoxitin, cefoxitin] | – | – | – | – | MIC50 (MRSA [2]; [7]): 250 µg/mL; MIC (MRSA [2]; [8]): 2 to 125 µg/mL; MIC50 (MRSA [2]; [9]): 31.3 µg/mL; inhibition of β-lactam resistant MRSA / improvement of antibacterial effect with apigenin (in words) (MRSA [2]; apigenin 4 μg/ml or less than its MIC): inhibited β-lactam resistant MRSA; MIC (MRSA No. 5; Concentration of flavone 0 mM): 1000 µM (≈ 427 µg/mL); MIC (MRSA No. 5; [10]): < 0.98 µM; inhibitory effect on resistance of MRSA No.5 (in words) (MRSA No. 5): showed the inhibitory effect remarkably |
| O=C(N[C@H](CO)[C@H](O)c1ccc([N+](=O)[O-])cc1)C(Cl)Cl [Chloramphenicol, chloramphenicol] | – | – | – | – | MIC (MRSA [2]; [11]): 2 to 62.5 µg/mL; MIC50 (MRSA [2]; [11]): 7.8 µg/mL; MIC (MRSA [2]; [12]): 3.9 to 31.3 µg/mL; MIC50 (MRSA [2]; [12]): 7.8 µg/mL |
| O=c1cc(-c2ccccc2)oc2cc(O)cc(O)c12 [Chrysin, chrysin] | > 250 | > 250 | > 250 | > 250 | – |
| O=c1c(-c2ccc(O)cc2)coc2cc(O)ccc12 [Daidzein, daidzein] | > 250 | > 250 | > 250 | > 250 | – |
| CC[C@H]1OC(=O)[C@H](C)[C@@H](O[C@H]2C[C@@](C)(OC)[C@@H](O)[C@H](C)O2)[C@H](C)[C@@H](O[C@@H]2O[C@H](C)C[C@H](N(C)C)[C@H]2O)[C@](C)(O)C[C@@H](C)C(=O)[C@H](C)[C@@H](O)[C@]1(C)O [Erythromycin, erythromycin] | – | – | – | – | MIC50 (MRSA [2]; [11]): > 250 µg/mL; MIC50 (MRSA [2]; [12]): > 250 µg/mL |
| COc1ccc(-c2coc3cc(O)ccc3c2=O)cc1 [Formononetin, formononetin] | > 250 | > 250 | > 250 | > 250 | – |
| O=c1c(-c2ccc(O)cc2)coc2cc(O)cc(O)c12 [Genistein, genistein] | > 250 | > 250 | > 250 | > 250 | – |
| COc1ccc([C@@H]2CC(=O)c3c(O)cc(O)cc3O2)cc1O [Hesperetin, hesperetin] | > 250 | > 250 | > 250 | > 250 | – |
| NC[C@H]1O[C@H](O[C@H]2[C@H](O)[C@@H](O[C@H]3O[C@H](CO)[C@@H](O)[C@H](N)[C@H]3O)[C@H](N)C[C@@H]2N)[C@H](O)[C@@H](O)[C@@H]1O [Kanamycin, kanamycin] | – | – | – | – | MIC50 (MRSA [2]; [11]): > 250 µg/mL; MIC50 (MRSA [2]; [12]): 250 µg/mL |
| O=C1C[C@@H](c2ccc(O)cc2)Oc2cc(O)ccc21 [Liquiritigenin, liquiritigenin] | – | – | – | – | MIC50 (MRSA [1]; MRSA): > 250 µg/mL; MIC50 (MSSA; MSSA): > 250 µg/mL |
| O=c1c(O)c(-c2cc(O)c(O)c(O)c2)oc2cc(O)cc(O)c12 [Myricetin, myricetin] | > 250 | – | > 250 | > 250 | – |
| CCn1cc(C(=O)O)c(=O)c2ccc(C)nc21 [Nalidixic acid] | – | – | – | – | MIC50 (MRSA [2]; [11]): > 250 µg/mL; MIC50 (MRSA [2]; [12]): > 250 µg/mL |
| O=C1C[C@@H](c2ccc(O)cc2)Oc2cc(O)cc(O)c21 [Naringenin, naringenin] | > 250 | > 250 | > 250 | > 250 | – |
| CC1(C)S[C@@H]2[C@H](NC(=O)Cc3ccccc3)C(=O)N2[C@H]1C(=O)O [Penicillin G, penicillin G] | – | – | – | – | MIC (MRSA [2]; [11]): 0.49 to 125 µg/mL; MIC50 (MRSA [2]; [11]): 31.3 µg/mL; MIC (MRSA [2]; [12]): 0.49 to 62.5 µg/mL; MIC50 (MRSA [2]; [12]): 15.6 µg/mL |
| O=c1c(O)c(-c2ccc(O)c(O)c2)oc2cc(O)c(O)c(O)c12 [Quercetagetin, quercetagetin] | – | – | – | – | MIC50 (MRSA [1]; MRSA): > 250 µg/mL; MIC (MRSA [1]; MRSA, MRSA (20 strains)): > 250 µg/mL; MIC50 (MSSA; MSSA): > 250 µg/mL; MIC (MSSA; MSSA, MSSA (7 strains)): > 250 µg/mL |
| COc1cc(O)c2c(=O)c(O)c(-c3ccc(O)c(O)c3)oc2c1 [Rhamnetin, rhamnetin] | > 250 | > 250 | > 250 | > 250 | – |
| CN(C)C1C(=O)C(C(N)=O)=C(O)C2(O)C(=O)C3=C(O)c4c(O)cccc4C(C)(O)C3CC12 (centres unmarked) [Tetracycline, tetracycline] | – | – | – | – | MIC (MRSA [2]; Antibiotics alone): 0.24 to 250 µg/mL; MIC50 (MRSA [2]; [11]): 0.98 µg/mL; MIC (MRSA [2]; [12]): 0.49 to 250 µg/mL; MIC50 (MRSA [2]; [12]): 0.98 µg/mL |
